The values that follow come from ChEMBL document CHEMBL2074442, “Recognition of beta-lactam antibiotics by rat peptide transporters, PEPT1 and PEPT2, in LLC-PK1 cells” (Am J Physiol, 1997).

Holding throughout (type): functional, cell-based
For data set [1], the target named is T1, Solute carrier family 15 member 2 (Rattus norvegicus, UniProt Q63424).
T1 sequence (Q63424 whole entry): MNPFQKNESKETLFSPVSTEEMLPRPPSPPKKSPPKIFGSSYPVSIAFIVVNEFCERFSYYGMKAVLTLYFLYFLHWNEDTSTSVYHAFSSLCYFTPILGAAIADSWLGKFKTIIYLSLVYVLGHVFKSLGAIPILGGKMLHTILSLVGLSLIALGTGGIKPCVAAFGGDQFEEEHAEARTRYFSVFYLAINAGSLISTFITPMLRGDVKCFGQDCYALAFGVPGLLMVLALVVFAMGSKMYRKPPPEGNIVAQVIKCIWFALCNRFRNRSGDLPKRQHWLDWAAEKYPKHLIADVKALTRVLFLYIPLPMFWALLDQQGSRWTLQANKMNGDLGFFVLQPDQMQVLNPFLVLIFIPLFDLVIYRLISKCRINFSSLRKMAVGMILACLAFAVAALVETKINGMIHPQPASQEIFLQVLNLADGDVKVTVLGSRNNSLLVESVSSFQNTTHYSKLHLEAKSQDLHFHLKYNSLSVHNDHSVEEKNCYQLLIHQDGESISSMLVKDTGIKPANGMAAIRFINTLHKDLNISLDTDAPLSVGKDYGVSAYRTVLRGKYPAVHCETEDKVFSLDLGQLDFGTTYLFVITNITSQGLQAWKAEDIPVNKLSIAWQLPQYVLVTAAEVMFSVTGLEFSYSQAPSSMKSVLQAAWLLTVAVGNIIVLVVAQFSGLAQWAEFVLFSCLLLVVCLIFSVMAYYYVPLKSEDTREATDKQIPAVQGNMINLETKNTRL
The data set can be described thus: TP_TRANSPORTER: inhibition of Gly-Sar uptake in PEPT2-expressing LLC-PK1 cells.

Data set [2] deals with T2, Solute carrier family 15 member 1 (Rattus norvegicus, UniProt P51574).
T2 sequence (P51574 whole entry): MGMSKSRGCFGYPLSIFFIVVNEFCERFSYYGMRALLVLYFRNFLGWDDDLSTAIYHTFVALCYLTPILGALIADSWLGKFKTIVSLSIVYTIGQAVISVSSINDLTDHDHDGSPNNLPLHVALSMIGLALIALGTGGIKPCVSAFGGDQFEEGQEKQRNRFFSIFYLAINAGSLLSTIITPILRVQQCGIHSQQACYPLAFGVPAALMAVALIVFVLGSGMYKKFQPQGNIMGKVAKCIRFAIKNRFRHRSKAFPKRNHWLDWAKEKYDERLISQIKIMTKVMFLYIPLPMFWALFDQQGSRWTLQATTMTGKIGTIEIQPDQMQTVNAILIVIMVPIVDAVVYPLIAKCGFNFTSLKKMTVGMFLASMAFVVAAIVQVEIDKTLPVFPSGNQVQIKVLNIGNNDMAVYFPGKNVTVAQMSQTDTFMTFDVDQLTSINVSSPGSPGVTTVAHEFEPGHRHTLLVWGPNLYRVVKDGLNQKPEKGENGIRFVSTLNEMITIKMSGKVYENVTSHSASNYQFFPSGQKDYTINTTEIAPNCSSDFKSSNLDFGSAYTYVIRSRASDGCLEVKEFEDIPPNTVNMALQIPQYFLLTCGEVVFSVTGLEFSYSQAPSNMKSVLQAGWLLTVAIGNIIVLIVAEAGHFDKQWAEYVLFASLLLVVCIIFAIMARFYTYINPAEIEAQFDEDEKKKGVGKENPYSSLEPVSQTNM
The experiment in a line: TP_TRANSPORTER: inhibition of Gly-Sar uptake in PEPT1-expressing LLC-PK1 cells.

Substrate in data set [3]: CN(CC(=O)O)C(=O)CN
The data set can be described thus: TP_TRANSPORTER: uptake in PEPT2-expressing LLC-PK1 cells.

Substrate in data set [4]: CN(CC(=O)O)C(=O)CN
The experiment in a line: TP_TRANSPORTER: uptake in PEPT1-expressing LLC-PK1 cells.

One may read the Ki as a dissociation constant, usually derived from enzyme kinetics or from competition with a known ligand. High values mean lower affinity, low ones higher affinity. In general, Km refers to the concentration of substrate that gives half-maximal velocity.

Consider `CC1(C)S[C@@H]2[C@H](NC(=O)[C@H](N)c3ccc(O)cc3)C(=O)N2[C@H]1C(=O)O` [AMOXICILLIN], for which the Ki stood at 179 µM in data set [1] and 13000 µM in data set [2].
The corresponding values for `C=CC1=C(C(=O)O)N2C(=O)[C@@H](NC(=O)/C(=N\O)c3csc(N)n3)[C@H]2SC1` [CEFDINIR] are 20100 µM and 11900 µM.
As for `Nc1nc(/C(=C/CC(=O)O)C(=O)N[C@@H]2C(=O)N3C(C(=O)O)=CCS[C@H]23)cs1` [CEFTIBUTEN], the Ki stood at 1340 µM in data set [1] and 597 µM in data set [2].
In the same order, the values of `CC1(C)S[C@@H]2[C@H](NC(=O)[C@H](N)c3ccccc3)C(=O)N2[C@H]1C(=O)O` [AMPICILLIN] are 669 µM and 47800 µM.
In the same order, the values of `CC1=C(C(=O)O)N2C(=O)[C@@H](NC(=O)[C@H](N)c3ccccc3)[C@H]2SC1` [CEPHALEXIN ANHYDROUS] are 49 µM and 4500 µM.
In the same order, the values of `CC1=C(C(=O)O)N2C(=O)[C@@H](NC(=O)[C@H](N)C3=CCC=CC3)[C@H]2SC1` [CEPHRADINE] are 47 µM and 8540 µM.
`CC1=C(C(=O)O)N2C(=O)[C@@H](NC(=O)[C@H](N)c3ccc(O)cc3)[C@H]2SC1` [CEFADROXIL]: the Ki in data set [1] came to 3 µM; in data set [2], 2170 µM.
The corresponding values for `CC1(C)S[C@@H]2[C@H](NC(=O)C3(N)CCCCC3)C(=O)N2[C@H]1C(=O)O` [CYCLACILLIN] are 27 µM and 168 µM.
The corresponding values for `C=CC1=C(C(=O)O)N2C(=O)[C@@H](NC(=O)/C(=N\OCC(=O)O)c3csc(N)n3)[C@H]2SC1` [CEFIXIME] are 11900 µM and 6920 µM.

B1: Solute carrier family 15 member 2 (Rattus norvegicus), Q63424 (protein)
chain: MNPFQKNESKETLFSPVSTEEMLPRPPSPPKKSPPKIFGSSYPVSIAFIVVNEFCERFSYYGMKAVLTLYFLYFLHWNEDTSTSVYHAFSSLCYFTPILGAAIADSWLGKFKTIIYLSLVYVLGHVFKSLGAIPILGGKMLHTILSLVGLSLIALGTGGIKPCVAAFGGDQFEEEHAEARTRYFSVFYLAINAGSLISTFITPMLRGDVKCFGQDCYALAFGVPGLLMVLALVVFAMGSKMYRKPPPEGNIVAQVIKCIWFALCNRFRNRSGDLPKRQHWLDWAAEKYPKHLIADVKALTRVLFLYIPLPMFWALLDQQGSRWTLQANKMNGDLGFFVLQPDQMQVLNPFLVLIFIPLFDLVIYRLISKCRINFSSLRKMAVGMILACLAFAVAALVETKINGMIHPQPASQEIFLQVLNLADGDVKVTVLGSRNNSLLVESVSSFQNTTHYSKLHLEAKSQDLHFHLKYNSLSVHNDHSVEEKNCYQLLIHQDGESISSMLVKDTGIKPANGMAAIRFINTLHKDLNISLDTDAPLSVGKDYGVSAYRTVLRGKYPAVHCETEDKVFSLDLGQLDFGTTYLFVITNITSQGLQAWKAEDIPVNKLSIAWQLPQYVLVTAAEVMFSVTGLEFSYSQAPSSMKSVLQAAWLLTVAVGNIIVLVVAQFSGLAQWAEFVLFSCLLLVVCLIFSVMAYYYVPLKSEDTREATDKQIPAVQGNMINLETKNTRL
For the molecule B1, the Km in data set [3] amounted to 110 µM.

B2: Solute carrier family 15 member 1 (Rattus norvegicus), P51574 (protein)
chain: MGMSKSRGCFGYPLSIFFIVVNEFCERFSYYGMRALLVLYFRNFLGWDDDLSTAIYHTFVALCYLTPILGALIADSWLGKFKTIVSLSIVYTIGQAVISVSSINDLTDHDHDGSPNNLPLHVALSMIGLALIALGTGGIKPCVSAFGGDQFEEGQEKQRNRFFSIFYLAINAGSLLSTIITPILRVQQCGIHSQQACYPLAFGVPAALMAVALIVFVLGSGMYKKFQPQGNIMGKVAKCIRFAIKNRFRHRSKAFPKRNHWLDWAKEKYDERLISQIKIMTKVMFLYIPLPMFWALFDQQGSRWTLQATTMTGKIGTIEIQPDQMQTVNAILIVIMVPIVDAVVYPLIAKCGFNFTSLKKMTVGMFLASMAFVVAAIVQVEIDKTLPVFPSGNQVQIKVLNIGNNDMAVYFPGKNVTVAQMSQTDTFMTFDVDQLTSINVSSPGSPGVTTVAHEFEPGHRHTLLVWGPNLYRVVKDGLNQKPEKGENGIRFVSTLNEMITIKMSGKVYENVTSHSASNYQFFPSGQKDYTINTTEIAPNCSSDFKSSNLDFGSAYTYVIRSRASDGCLEVKEFEDIPPNTVNMALQIPQYFLLTCGEVVFSVTGLEFSYSQAPSNMKSVLQAGWLLTVAIGNIIVLIVAEAGHFDKQWAEYVLFASLLLVVCIIFAIMARFYTYINPAEIEAQFDEDEKKKGVGKENPYSSLEPVSQTNM
Consider B2, for which the Km in data set [4] was determined as 1100 µM.
